Legend:
Assay in all cases: In vitro MMP inhibition analysis (fluorogenic peptide substrate cleavage), Ki
Format in all cases: biochemical
Conditions in all cases: Table 2
[1] = target: T1, Human recombinant MMP-2 (Homo sapiens, UniProt P08253)
T1 construct: made in house; host or cells: MMP-2-transfected p2AHT2 cells
T1 sequence (P08253 110-660): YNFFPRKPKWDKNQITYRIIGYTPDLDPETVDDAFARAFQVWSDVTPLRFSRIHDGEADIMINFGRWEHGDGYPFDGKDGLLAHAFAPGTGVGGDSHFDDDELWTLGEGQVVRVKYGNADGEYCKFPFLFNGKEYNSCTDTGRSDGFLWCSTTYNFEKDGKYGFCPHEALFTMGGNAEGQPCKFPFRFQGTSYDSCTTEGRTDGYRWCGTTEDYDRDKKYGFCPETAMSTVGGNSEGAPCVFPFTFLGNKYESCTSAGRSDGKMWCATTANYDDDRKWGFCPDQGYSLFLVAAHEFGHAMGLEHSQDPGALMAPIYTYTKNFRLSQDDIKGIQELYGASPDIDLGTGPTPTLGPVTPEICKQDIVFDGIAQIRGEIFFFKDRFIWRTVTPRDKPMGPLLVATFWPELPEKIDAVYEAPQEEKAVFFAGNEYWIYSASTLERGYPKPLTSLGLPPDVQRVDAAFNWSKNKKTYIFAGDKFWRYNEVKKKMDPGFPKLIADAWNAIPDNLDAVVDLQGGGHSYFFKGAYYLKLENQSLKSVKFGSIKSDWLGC
Method in brief: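 Human recombinant MMP-2 from transfected p2AHT2 cells was activated with APMA or trypsin and incubated 1 h at room temperature with compounds and 4 μM MCA-RPLGL(Dpa)ARER-NH2. Buffer was pH 7.5 Tris/NaCl/CaCl2, and fluorescence was read at ex 330/em 420 nm. Ki was fitted by Morrison's equation without substrate correction.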

[2] = target: T2, Human recombinant MMP-9 (Homo sapiens, UniProt P14780)
T2 construct: made in house; host or cells: MMP-9-transfected HT1080 cells (spent media)
Method in brief: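 Recombinant MMP-9 purified from transfected HT1080 cell media, activated with APMA, trypsin or recombinant MMP-3, assayed in Tris buffer pH 7.5 with CaCl2 and 4 μM fluorogenic MCA/Dpa peptide, 1 h at room temperature (ex 330/em 420 nm). Ki from Morrison-equation regression of velocity; substrate at or below Km, uncorrected.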

[3] = target: T3, Human recombinant MMP-1 (Homo sapiens, UniProt P03956)
T3 construct: made in house; host or cells: MMP-1-transfected HT-1080 cells (spent media)
T3 sequence (P03956 100-469): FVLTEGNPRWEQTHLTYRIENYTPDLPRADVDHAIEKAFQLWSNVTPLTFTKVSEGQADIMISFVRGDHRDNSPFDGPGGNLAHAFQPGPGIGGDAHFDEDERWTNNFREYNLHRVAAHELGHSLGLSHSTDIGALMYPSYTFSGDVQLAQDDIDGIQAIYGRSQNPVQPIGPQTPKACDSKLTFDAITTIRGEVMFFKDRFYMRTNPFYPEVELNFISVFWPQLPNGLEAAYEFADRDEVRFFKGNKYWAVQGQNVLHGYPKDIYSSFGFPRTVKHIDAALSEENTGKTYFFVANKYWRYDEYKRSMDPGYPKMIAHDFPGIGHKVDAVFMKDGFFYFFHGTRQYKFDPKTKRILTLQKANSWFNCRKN
Method in brief: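 APMA- or trypsin-activated recombinant human MMP-1 (purified from transfected HT-1080 medium) with 4 μM MCA/Dpa quenched fluorogenic peptide, 1 h at room temperature in Tris/NaCl/CaCl2 buffer pH 7.5; fluorescence ex 330/em 420 nm. Ki from Morrison-equation fit of rates, substrate at or below Km, uncorrected.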

[4] = target: T4, Human recombinant MMP-14 (Homo sapiens, UniProt P50281)
T4 construct: The catalytic domain enzyme was expressed in E. coli inclusion bodies, solubilized in urea; made in house
Method in brief: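 Refolded catalytic domain of MMP-14 expressed in E. coli, activated with APMA or trypsin, incubated 1 h at room temperature with 4 μM MCA-peptide substrate in Tris buffer pH 7.5 with CaCl2. Cleavage rate followed by fluorescence (ex 330/em 420 nm). Ki from Morrison-equation fit; substrate at or below Km, so no substrate correction.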

T2 sequence (P14780 107-707 limits assumed): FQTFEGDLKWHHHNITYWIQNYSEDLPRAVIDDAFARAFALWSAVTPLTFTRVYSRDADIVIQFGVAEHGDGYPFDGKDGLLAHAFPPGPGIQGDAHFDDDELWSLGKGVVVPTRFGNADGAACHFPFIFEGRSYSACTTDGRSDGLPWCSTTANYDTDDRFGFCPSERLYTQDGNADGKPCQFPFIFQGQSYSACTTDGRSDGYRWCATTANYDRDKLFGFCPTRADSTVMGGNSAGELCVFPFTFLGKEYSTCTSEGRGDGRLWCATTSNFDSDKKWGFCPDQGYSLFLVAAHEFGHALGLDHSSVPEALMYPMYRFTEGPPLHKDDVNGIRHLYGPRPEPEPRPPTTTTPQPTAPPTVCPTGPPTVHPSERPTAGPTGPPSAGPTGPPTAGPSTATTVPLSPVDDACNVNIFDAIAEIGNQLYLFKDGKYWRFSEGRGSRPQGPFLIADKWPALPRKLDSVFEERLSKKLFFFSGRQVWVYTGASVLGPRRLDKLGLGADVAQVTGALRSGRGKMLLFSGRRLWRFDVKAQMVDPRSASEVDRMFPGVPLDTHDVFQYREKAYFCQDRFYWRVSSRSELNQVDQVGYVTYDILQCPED

Row | Ki [1] [nM] | Ki [2] [nM] | Ki [3] [nM] | Ki [4] [nM] | SMILES
1 | 5.74 | 32.2 | > 10000 | 1790 | O=C(NO)C1(S(=O)(=O)c2ccc(-c3nc4ccccc4s3)cc2)CCOCC1 [Example 195]
2 | 0.081 | 0.138 | 1280 | 272 | COCCOC1CCC(C(=O)NO)(S(=O)(=O)c2ccc(-c3ccc(CCCC(F)(F)F)cn3)cc2)CC1 (centres unmarked) [Example 209]
3 | 0.1 | 0.14 | 1100 | 326 | O=C(NO)C1(S(=O)(=O)c2ccc(-c3cnc(OCC4CCC4)cn3)cc2)CCOCC1 [Example 178]
4 | 0.35 | 0.14 | > 10000 | 798 | CO[C@H]1CC[C@](C(=O)NO)(S(=O)(=O)c2ccc(-c3cnc(CCC(F)(F)C(F)(F)F)cn3)cc2)CC1 [Example 183]
5 | 2.51 | 13.3 | 1860 | 2550 | C#CCN(C)C(=O)c1ccc2cc(-c3ccc(S(=O)(=O)C4(C(=O)NO)CCOCC4)cc3)ccc2c1 [Example 216]
6 | 1.77 | 61.4 | 1140 | 7920 | CCCCNC(=O)c1ccc(-c2ccc(S(=O)(=O)C3(C(=O)NO)CCOCC3)cc2)nc1 [Example 203]
7 | 2.16 | 28.4 | 552 | 5120 | O=C(NC1CCCC1)c1ccc(-c2ccc(S(=O)(=O)C3(C(=O)NO)CCOCC3)cc2)nc1 [Example 198]
8 | 0.4 | 0.1 | 1660 | 264 | CC(C)CC#Cc1cnc(-c2ccc(S(=O)(=O)C3(C(=O)NO)CCOCC3)cc2)cn1 [Example 166]
9 | 4.16 | 4.86 | > 10000 | 4450 | CCNc1cnc(-c2ccc(S(=O)(=O)C3(C(=O)NO)CCOCC3)cc2)cn1 [Example 93]
10 | 4.99 | 78 | 1380 | > 10000 | CC[C@@H](C)NC(=O)c1ccc(-c2ccc(S(=O)(=O)C3(C(=O)NO)CCOCC3)cc2)nc1 [Example 207]
11 | 1.34 | 11.5 | 1490 | 96.7 | O=C(NO)C1(S(=O)(=O)c2ccc(-c3nc4ccccc4o3)cc2)CCOCC1 [Example 193]
12 | 0.13 | 4.23 | 81.2 | 27.1 | O=C(NO)C1(S(=O)(=O)c2ccc(-c3ccc4c(c3)OCO4)cc2)CCOCC1 [Example 188]
13 | 1.9 | 12.5 | > 10000 | 3590 | O=C(NO)C1(S(=O)(=O)c2ccc(-c3ccc(CCC(F)(F)C(F)(F)F)cc3)cc2)CCS(=O)(=O)CC1 [Example 167]
14 | 0.404 | 0.648 | > 10000 | 942 | COCCN1CCC(C(=O)NO)(S(=O)(=O)c2ccc(-c3cnc(OCCC4CCCC4)cn3)cc2)CC1 [Example 200]
15 | 0.539 | 50.5 | 251 | > 2500 | O=C(NCC1CC1)c1ccc2cc(-c3ccc(S(=O)(=O)C4(C(=O)NO)CCOCC4)cc3)ccc2c1 [Example 220]
16 | 0.75 | 1.43 | 200 | 930 | O=C(NCC1CC1)c1cnc(-c2ccc(S(=O)(=O)C3(C(=O)NO)CCOCC3)cc2)cn1 [Example 191]
17 | 3.57 | 4.8 | > 10000 | > 10000 | CCN1CCC(C(=O)NO)(S(=O)(=O)c2ccc(-c3cnc(CCC(F)(F)F)cn3)cc2)CC1 [Example 213]
18 | 1.01 | 0.75 | > 10000 | 3430 | COCCOC1CCC(C(=O)NO)(S(=O)(=O)c2ccc(-c3cnc(CCCC(F)(F)F)cn3)cc2)CC1 (centres unmarked) [Example 210]

Row | Ki [1] [nM] | Ki [2] [nM] | Ki [3] [nM] | Ki [4] [nM] | SMILES
19 | 0.295 | 1.03 | > 10000 | 1140 | O=C(NO)C1(S(=O)(=O)c2ccc(-c3cnc(OCCC4CCCC4)cn3)cc2)CCOCC1 [Example 180]
20 | 0.32 | 0.578 | 4060 | 1260 | O=C(NO)C1(S(=O)(=O)c2ccc(-c3ccc(CCCC(F)(F)F)cn3)cc2)CC=CC1 [Example 202]
21 | 0.2 | 1.99 | 256 | 65.4 | O=C(NO)C1(S(=O)(=O)c2ccc(-c3ccc(C(F)(F)F)cn3)cc2)CCOCC1 [Example 82]
22 | 58.1 | 106 | > 10000 | 7410 | CCC(C)COc1ccc(-c2ccc(S(=O)(=O)C3(C(=O)NO)CCOCC3)cc2)cc1C(F)(F)F (centres unmarked) [Example 92]
23 | 15.1 | 21.8 | 1070 | 7630 | CC(C)(C)NC(=O)c1ccc(-c2ccc(S(=O)(=O)C3(C(=O)NO)CCOCC3)cc2)nc1 [Example 205]
24 | 0.246 | 9.78 | 975 | 773 | O=C(CCc1nccs1)c1ccc(-c2ccc(S(=O)(=O)C3(C(=O)NO)CCOCC3)cc2)cc1 [Example 211]
25 | 0.184 | 0.635 | 471 | 27.4 | CCc1ccc(-c2ccc(S(=O)(=O)C3(C(=O)NO)CCOCC3)cc2)cc1 [Example 79]
26 | 0.07 | 0.06 | 1360 | 222 | O=C(NO)C1(S(=O)(=O)c2ccc(-c3cnc(OCCC4CC4)cn3)cc2)CCOCC1 [Example 172]
27 | 10.6 | 39.4 | 1260 | > 10000 | CC[C@H](C)NC(=O)c1ccc(-c2ccc(S(=O)(=O)C3(C(=O)NO)CCOCC3)cc2)nc1 [Example 208]
28 | 0.374 | 0.266 | 3900 | 321 | CCCCc1ccc(-c2ccc(S(=O)(=O)C3(C(=O)NO)CCOCC3)cc2)cc1 [Example 91]
29 | 0.89 | 41.1 | 1540 | 5920 | O=C(NCC(F)(F)C(F)(F)F)c1cnc(-c2ccc(S(=O)(=O)C3(C(=O)NO)CCOCC3)cc2)cn1 [Example 192]
30 | 0.045 | 0.097 | 980 | 221 | O=C(NO)C1(S(=O)(=O)c2ccc(-c3ccc(CCC(F)(F)C(F)(F)F)cn3)cc2)CCOCC1 [Example 201]
31 | 2.09 | 2.05 | > 10000 | 6980 | COCCN1CCC(C(=O)NO)(S(=O)(=O)c2ccc(-c3cnc(CCC(F)(F)F)cn3)cc2)CC1 [Example 214]
32 | 7.8 | 29.5 | 1440 | > 10000 | O=C(c1ccc2cc(-c3ccc(S(=O)(=O)C4(C(=O)NO)CCOCC4)cc3)ccc2c1)N1CCOCC1 [Example 222]
33 | 28.3 | 216 | > 10000 | 2100 | O=C(NO)C1(S(=O)(=O)c2ccc(-c3ccc(OCC(F)(F)C(F)(F)F)c(C(F)(F)F)c3)cc2)CCOCC1 [Example 90]
34 | 11 | 34.3 | 1500 | > 10000 | O=C(c1ccc2cc(-c3ccc(S(=O)(=O)C4(C(=O)NO)CCOCC4)cc3)ccc2c1)N1CCCCC1 [Example 223]
35 | 1.15 | 1 | > 10000 | 5070 | O=C(NO)C1(S(=O)(=O)c2ccc(-c3cnc(CCC(F)(F)F)cn3)cc2)CCN(C2CC2)CC1 [Example 215]

— patent US20060074243A1, “Hydroxamic acid and amide compounds and their use as protease inhibitors” (Pharmacia Corporation, priority 2002, published 2006)
